In patent publication US11214803B2, “Modulators of YAP1 expression” (Ionis Pharmaceuticals, Inc., priority 2019, dated 2022):
Strand notation (5' to 3'): a small letter for the sugar, then the base; units joined by * are phosphorothioate-linked, units joined directly phosphodiester-linked; [ ] holds rarer units or linkages, { } end groups; capitals alone tell only the bases. k = constrained ethyl (cEt); [5mC] = 5-methylcytosine; d = 2'-deoxy (DNA)

Tested on: Yap1 mRNA
Assay: Antisense inhibition of human Yap1 in A-431 cells by cEt gapmers, single dose (Example 2, RTS4814)
Format: cell-based
Settings: Table 18; A-431 cells, 5,000 cells per well, free uptake, 2,000 nM modified oligonucleotide, approx. 48 hours; RTS4814; normalized to RIBOGREEN; Yap1 mRNA as percent of untreated control
Outline: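 Each 16-nucleoside gapmer (ten-deoxy gap, three-cEt wings) is tested once at 2,000 nM in A-431 cells by free uptake. Yap1 mRNA after about 48 hours is measured by quantitative RT-PCR and expressed relative to untreated control.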

Substance | YAP1 (% UTC)
1076356 (k[5mC]*kA*kT*dA*dA*dT*dT*dG*dG*dA*d[5mC]*dT*dG*kT*k[5mC]*kT; antisense) [Compound 1076356] | 99
1076388 (kG*kA*kA*dA*dT*dA*dT*dT*d[5mC]*dG*dA*dG*dA*kA*kG*kA; antisense) [Compound 1076388] | 6
1076420 (k[5mC]*k[5mC]*kA*dT*dA*dT*dA*dA*dT*dA*dA*d[5mC]*d[5mC]*k[5mC]*kA*kT; antisense) [Compound 1076420] | 26
1076452 (kG*kG*kA*d[5mC]*dT*dA*dT*dA*dG*d[5mC]*d[5mC]*d[5mC]*dT*kT*kA*kA; antisense) [Compound 1076452] | 16
1076484 (antisense kG*kA*kA*dA*d[5mC]*dG*dG*dG*dA*dA*dA*dT*d[5mC]*kA*kT*kA) [Compound 1076484] | 10

Same assay, conditions: Table 19; A-431 cells, 5,000 cells per well, free uptake, 2,000 nM modified oligonucleotide, approx. 48 hours; RTS4814; normalized to RIBOGREEN; Yap1 mRNA as percent of untreated control

Substance | YAP1 (% UTC)
1076357 (kT*k[5mC]*k[5mC]*dA*dA*dA*dA*dA*d[5mC]*dT*dT*d[5mC]*dT*kT*kA*kG; antisense) [Compound 1076357] | 22
1076389 (kA*kT*k[5mC]*dG*dA*dA*dA*dT*dA*dT*dT*d[5mC]*dG*kA*kG*kA; antisense) [Compound 1076389] | 76
1076421 (kA*kA*kT*dT*dA*dT*dG*dA*d[5mC]*d[5mC]*dT*d[5mC]*d[5mC]*kA*kT*kG; antisense) [Compound 1076421] | 65

Same assay, conditions: Table 20; Yap1 mRNA, percent of untreated control; 3-10-3 cEt gapmers targeting SEQ ID NO.: 1 and 2

Substance | YAP1 (% UTC)
1076358 (kG*kT*kT*dT*dA*dA*d[5mC]*dA*dA*dA*d[5mC]*dT*dT*kG*kT*kA; antisense) [Compound 1076358] | 43
1076390 (kG*kA*kT*d[5mC]*dG*dA*dA*dA*dT*dA*dT*dT*d[5mC]*kG*kA*kG; antisense) [Compound 1076390] | 54
1076422 (kG*kA*kA*dT*dT*dA*dT*dG*dA*d[5mC]*d[5mC]*dT*d[5mC]*k[5mC]*kA*kT; antisense) [Compound 1076422] | 13
1076454 (kT*kA*kA*dA*d[5mC]*dT*dA*dA*dT*d[5mC]*d[5mC]*d[5mC]*dA*kT*kA*kT; antisense) [Compound 1076454] | 35

Same assay, conditions: Table 21; Yap1 mRNA, percent of untreated control; 3-10-3 cEt gapmers targeting SEQ ID NO.: 1 and 2

Substance | YAP1 (% UTC)
1076359 (kA*kT*kT*dT*dA*dT*d[5mC]*d[5mC]*dT*dA*dG*dT*dT*kA*k[5mC]*k[5mC]; antisense) [Compound 1076359] | 29
1076391 (k[5mC]*kA*kA*dA*dT*dA*dT*dA*dG*dT*dT*dA*dG*k[5mC]*k[5mC]*kT; antisense) [Compound 1076391] | 22
1076423 (k[5mC]*k[5mC]*kT*dG*dA*dA*d[5mC]*d[5mC]*dT*dT*d[5mC]*dT*dG*kG*kA*kT; antisense) [Compound 1076423] | 93
1076455 (antisense kA*k[5mC]*kT*dA*dA*dA*dT*dA*d[5mC]*dT*dT*dT*dT*kA*kG*k[5mC]) [Compound 1076455] | 86

Same assay, conditions: Table 22; Yap1 mRNA as percent of untreated control; 3-10-3 cEt gapmers; single dose

Substance | YAP1 (% UTC)
1076360 (k[5mC]*kT*kA*dT*dT*dT*dA*dT*d[5mC]*d[5mC]*dT*dA*dG*kT*kT*kA; antisense) [Compound 1076360] | 59
1076392 (kT*kA*kT*dT*dA*dA*dT*d[5mC]*dA*dA*dA*dT*dA*kG*kG*kG; antisense) [Compound 1076392] | 64
1076424 (kA*k[5mC]*kT*dT*dA*dA*d[5mC]*d[5mC]*dT*dG*dA*d[5mC]*dA*kG*k[5mC]*kT; antisense) [Compound 1076424] | 76

Same assay, conditions: Table 23; Yap1 mRNA as percent of untreated control; 3-10-3 cEt gapmers; single dose

Substance | YAP1 (% UTC)
1076361 (kT*kG*kG*dG*dA*dA*dA*dA*dG*d[5mC]*dT*dA*d[5mC]*k[5mC]*kA*k[5mC]; antisense) [Compound 1076361] | 87
1076393 (k[5mC]*kT*kT*dT*dA*d[5mC]*dT*dT*dA*d[5mC]*dT*dG*dG*kT*kG*kG; antisense) [Compound 1076393] | 4
1076425 (k[5mC]*kG*kG*dG*dA*dA*dA*dA*dT*dT*d[5mC]*dT*dG*kG*kA*kG; antisense) [Compound 1076425] | 32
1076457 (antisense kG*kA*kA*d[5mC]*dT*dA*dT*dA*dA*dT*d[5mC]*dT*dT*kA*kT*kA) [Compound 1076457] | 74

Same assay, conditions: Table 24; Yap1 mRNA as percent of untreated control; 3-10-3 cEt gapmers targeting SEQ ID NO.: 1, and 2

Substance | YAP1 (% UTC)
1076362 (k[5mC]*k[5mC]*kA*d[5mC]*dT*dA*dA*dA*dT*dA*dA*dA*dG*k[5mC]*kA*kG; antisense) [Compound 1076362] | 16
1076394 (k[5mC]*k[5mC]*kT*dA*dA*dA*dT*dT*dA*dG*dA*d[5mC]*dT*kT*kG*kA; antisense) [Compound 1076394] | 20
1076426 (kA*k[5mC]*kG*dG*dG*dA*dA*dA*dA*dT*dT*d[5mC]*dT*kG*kG*kA; antisense) [Compound 1076426] | 9
1076458 (antisense k[5mC]*kT*kT*dA*dA*dT*dT*dA*dG*d[5mC]*d[5mC]*dT*d[5mC]*kA*kG*kT) [Compound 1076458] | 6

Same assay, conditions: Table 25; Yap1 mRNA as percent of untreated control; 3-10-3 cEt gapmers targeting SEQ ID NO.: 1, and 2

Substance | YAP1 (% UTC)
1076363 (k[5mC]*kA*kT*dA*dA*dA*dA*dG*dT*d[5mC]*d[5mC]*dA*d[5mC]*kT*kA*kA; antisense) [Compound 1076363] | 72
1076395 (kG*kT*kA*dA*d[5mC]*dT*dA*dA*d[5mC]*d[5mC]*dT*dA*dA*kG*kG*kA; antisense) [Compound 1076395] | 34
1076427 (k[5mC]*kA*kA*dA*dT*dT*dT*dA*d[5mC]*dT*dG*dA*dT*k[5mC]*kT*k[5mC]; antisense) [Compound 1076427] | 3
1076459 (antisense k[5mC]*kT*kT*d[5mC]*dA*dA*d[5mC]*dA*dA*dG*dA*d[5mC]*dA*kG*kG*kT) [Compound 1076459] | 4

Same assay, conditions: Table 32; Yap1 mRNA, percent of untreated control; 3-10-3 cEt gapmers targeting SEQ ID NO.: 1, and 2

Substance | YAP1 (% UTC)
1076338 (antisense k[5mC]*kA*kT*dT*dA*dA*dA*d[5mC]*d[5mC]*dA*dG*dG*dG*kA*k[5mC]*kT) [compound 1076338] | 33
1076402 (antisense k[5mC]*kG*kT*dA*dA*dT*dT*dA*dT*dT*dT*dT*dT*kG*k[5mC]*kT) [compound 1076402] | 38
1076434 (k[5mC]*kT*kT*dT*dA*dG*dG*dT*dT*dT*dA*dT*dG*k[5mC]*k[5mC]*kT; antisense) [compound 1076434] | 25

Same assay, conditions: Table 33; Yap1 mRNA, percent of untreated control; 3-10-3 cEt gapmers targeting SEQ ID NO.: 1, and 2

Substance | YAP1 (% UTC)
1076339 (antisense k[5mC]*kA*kG*d[5mC]*dA*dA*dT*dA*d[5mC]*dT*dG*dT*dG*kG*kG*k[5mC]) [compound 1076339] | 13
1076371 (antisense kT*kA*kA*dG*dA*dA*d[5mC]*dG*dA*dA*d[5mC]*d[5mC]*dT*k[5mC]*k[5mC]*kA) [compound 1076371] | 49
1076403 (antisense kA*kT*kT*dT*dA*dA*dG*dA*d[5mC]*d[5mC]*dT*dG*dG*kT*kG*kA) [compound 1076403] | 26
1076435 (k[5mC]*kG*kT*dA*dA*dA*d[5mC]*dA*dT*d[5mC]*dA*dT*d[5mC]*kT*k[5mC]*kT; antisense) [compound 1076435] | 12

Same assay, conditions: Yap1 mRNA as percent of untreated control; A-431 cells; 3-10-3 cEt gapmers targeting SEQ ID NO.: 1, and 2; Table 30

Substance | YAP1 (% UTC)
1076336 (antisense k[5mC]*kA*kT*dT*dA*d[5mC]*d[5mC]*dA*d[5mC]*d[5mC]*dT*dA*dT*kA*kA*kG) [compound 1076336] | 31
1076368 (antisense k[5mC]*kA*kT*dT*dT*dT*dA*dT*dG*dT*dA*dA*dG*kG*k[5mC]*k[5mC]) [compound 1076368] | 15
1076400 (antisense kG*kT*kT*dA*dA*dA*dA*dG*d[5mC]*d[5mC]*dG*dT*dG*kA*kA*kA) [compound 1076400] | 10
1076432 (k[5mC]*kA*kT*dT*dA*dG*dT*dA*dT*dT*d[5mC]*dA*d[5mC]*kT*kG*kT; antisense) [compound 1076432] | 18

Same assay, conditions: Yap1 mRNA as percent of untreated control; A-431 cells; 3-10-3 cEt gapmers targeting SEQ ID NO.: 1, and 2; Table 31

Substance | YAP1 (% UTC)
1076337 (antisense kA*kT*kT*dA*dA*dA*d[5mC]*d[5mC]*dA*dG*dG*dG*dA*k[5mC]*kT*kG) [compound 1076337] | 25
1076401 (antisense kT*k[5mC]*kT*dA*dA*dA*dG*dA*d[5mC]*dT*d[5mC]*dT*d[5mC]*kA*kT*kT) [compound 1076401] | 31
1076433 (kA*kT*kT*dA*dA*d[5mC]*dT*dT*dT*d[5mC]*dG*d[5mC]*dT*kA*kA*kA; antisense) [compound 1076433] | 69
